Experimental data published in ChEMBL document CHEMBL5113529, “Design, Synthesis, and Biological Evaluation of Dual-Target COX-2/CYP51 Inhibitors for the Treatment of Fungal Infectious Diseases” (J Med Chem, 2022).
≈ marks a conversion by molar mass, not a printed value. Calls of active or inactive are those of the source. No cut-off for these calls is given here.

How the values were obtained:
[1] = tested on: Candida albicans; experiment: Antifungal actvity against Candida albicans ATCC SC5314 infected in mouse assessed as reduction in fungal infection at 10 ug per 20 g, ip administered on day 2, 4, 6, 8, 10 and 12 and measured on day 14; format: functional, organism-based; conditions: dose 10.0 µg, time 14.0 day
[2] = tested on: Cryptococcus neoformans; experiment: Antifungal activity against Cryptococcus neoformans ZKCC 2209 assessed as fungal growth inhibition measured after 72 hrs by double dilution method; format: functional
[3] = tested on: Candida albicans; experiment: Antifungal activity against Candida albicans ATCC SC5314 assessed as fungal growth inhibition measured after 72 hrs by double dilution method; format: functional
[4] = tested on: Candida albicans; experiment: Antifungal activity against fluconazole- resistant Candida albicans 17# assessed as fungal growth inhibition measured after 72 hrs by double dilution method; format: functional
[5] = tested on: Pichia kudriavzevii; experiment: Antifungal activity against Candida krusei ATCC 6258 assessed as fungal growth inhibition measured after 72 hrs by double dilution method; format: functional
[6] = tested on: Candida tropicalis; experiment: Antifungal activity against Candida tropicalis ATCC 1369 assessed as fungal growth inhibition measured after 72 hrs by double dilution method; format: functional
[7] = tested on: Aspergillus fumigatus; experiment: Antifungal activity against Aspergillus fumigatus KM8001 assessed as fungal growth inhibition measured after 72 hrs by double dilution method; format: functional
[8] = tested on: Candida albicans; experiment: Antifungal activity against fluconazole -resistant Candida albicans CaR assessed as fungal growth inhibition measured after 72 hrs by double dilution method; format: functional
[9] = tested on: Candida albicans; experiment: Antifungal activity against fluconazole -resistant Candida albicans 632 assessed as fungal growth inhibition measured after 72 hrs by double dilution method; format: functional
[10] = tested on: Candida albicans; experiment: Antifungal activity against fluconazole -resistant Candida albicans 901 assessed as fungal growth inhibition measured after 72 hrs by double dilution method; format: functional
[11] = tested on: Candida albicans; experiment: Antifungal activity against fluconazole -resistant Candida albicans 904 assessed as fungal growth inhibition measured after 72 hrs by double dilution method; format: functional
[12] = target: Prostaglandin G/H synthase 1 (Homo sapiens, UniProt P23219); experiment: Inhibition of COX-1 (unknown origin) using arachidonic acid as substrate preincubated for 10 mins followed by substrate addition and measured after 2 mins by immunoassay
Prostaglandin G/H synthase 1, sequence (P23219 whole entry): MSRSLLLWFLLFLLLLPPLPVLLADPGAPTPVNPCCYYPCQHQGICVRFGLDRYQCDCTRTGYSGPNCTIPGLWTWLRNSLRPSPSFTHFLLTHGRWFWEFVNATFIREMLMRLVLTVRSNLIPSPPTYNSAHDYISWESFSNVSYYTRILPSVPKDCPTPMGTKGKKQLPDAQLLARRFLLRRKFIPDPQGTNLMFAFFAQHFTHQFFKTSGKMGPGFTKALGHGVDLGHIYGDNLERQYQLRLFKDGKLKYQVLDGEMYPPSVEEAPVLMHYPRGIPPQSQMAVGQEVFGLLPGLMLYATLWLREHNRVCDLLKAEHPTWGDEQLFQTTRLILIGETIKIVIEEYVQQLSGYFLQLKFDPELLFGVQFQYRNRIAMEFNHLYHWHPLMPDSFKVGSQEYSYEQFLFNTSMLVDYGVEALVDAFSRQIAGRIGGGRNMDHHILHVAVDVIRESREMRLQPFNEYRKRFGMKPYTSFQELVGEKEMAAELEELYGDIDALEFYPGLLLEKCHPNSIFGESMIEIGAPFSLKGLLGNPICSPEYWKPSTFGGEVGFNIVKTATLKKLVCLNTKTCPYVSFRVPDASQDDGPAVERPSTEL

[13] = target: T1, Lanosterol 14-alpha demethylase (Candida albicans (strain SC5314 / ATCC MYA-2876) (Yeast), UniProt P10613); experiment: Inhibition of CYP51 in Candida albicans SC5314 using Eburicol as substrate preincubated for 20 mins followed by substrate addition and measured after 4 mins by HPLC analysis; format: single protein
T1 sequence (P10613 whole entry): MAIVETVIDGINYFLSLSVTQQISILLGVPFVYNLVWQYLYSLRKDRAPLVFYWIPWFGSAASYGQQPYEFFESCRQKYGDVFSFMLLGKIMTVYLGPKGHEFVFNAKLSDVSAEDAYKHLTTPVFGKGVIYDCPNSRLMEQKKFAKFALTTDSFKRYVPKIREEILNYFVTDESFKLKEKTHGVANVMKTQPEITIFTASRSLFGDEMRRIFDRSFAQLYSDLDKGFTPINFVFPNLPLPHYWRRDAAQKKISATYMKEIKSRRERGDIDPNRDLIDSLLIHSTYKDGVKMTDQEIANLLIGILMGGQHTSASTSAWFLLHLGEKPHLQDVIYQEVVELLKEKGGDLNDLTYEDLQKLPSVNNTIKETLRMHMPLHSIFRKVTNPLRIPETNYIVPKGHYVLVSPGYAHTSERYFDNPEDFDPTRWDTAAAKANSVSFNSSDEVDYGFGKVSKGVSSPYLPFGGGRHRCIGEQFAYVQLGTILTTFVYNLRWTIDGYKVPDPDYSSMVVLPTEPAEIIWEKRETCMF

[14] = Toxicity in mouse infected with Candida albicans assessed as heart injury at 10 ug per 20 g, ip administered on day 2, 4, 6, 8, 10 and 12 and measured on day 14 by H and E staining based assay; format: organism-based; conditions: in vivo, 336 h, dose 10 µg, time 14 day
[15] = Toxicity in mouse infected with Candida albicans assessed as AST level in plasma at 10 ug per 20 g, ip administered on day 2, 4, 6, 8, 10 and 12 and measured on day 14 (reference value: 74.9 +/- 6.7 IU/L); format: organism-based; conditions: in vivo, 336 h, dose 10 µg, time 14 day
[16] = Toxicity in mouse infected with Candida albicans assessed as ALT level in plasma at 10 ug per 20 g, ip administered on day 2, 4, 6, 8, 10 and 12 and measured on day 14 (reference value: 43.6 +/- 4.4 IU/L); format: organism-based; conditions: in vivo, 336 h, dose 10 µg, time 14 day
[17] = Toxicity in mouse infected with Candida albicans assessed as BUN level in plasma at 10 ug per 20 g, ip administered on day 2, 4, 6, 8, 10 and 12 and measured on day 14 (reference value: 8.2 +/- 0.5 mmol/L); format: organism-based; conditions: in vivo, 336 h, dose 10 µg, time 14 day
[18] = tested on: Candida albicans; experiment: Antifungal activity against Candida albicans ATCC SC5314 assessed as decrease in fungal cell density measured immediately by fluorescence microscopy (reference value: 126%); format: functional; design: scale not given: the % may be the effect or the level left
[19] = tested on: Candida albicans; experiment: Antifungal activity against Candida albicans ATCC SC5314 assessed as decrease in fungal cell density measured at 48 hrs by fluorescence microscopy (reference value: 258%); format: functional; design: scale not given: the % may be the effect or the level left
[20] = tested on: Candida albicans; experiment: Induction of mitochondrial membrane potential loss in Candida albicans ATCC SC5314 assessed as polarized cells at 1 umol/ml incubated for 24 hrs by JC-1 staining based flow cytometry assay (reference value: 0.69%); format: functional; conditions: dose 1 µmol/L, at 1 µM
[21] = tested on: Candida albicans; experiment: Induction of mitochondrial membrane potential loss in Candida albicans ATCC SC5314 assessed as normal cells at 1 umol/ml incubated for 24 hrs by JC-1 staining based flow cytometry assay (reference value: 95.26%); format: functional; conditions: dose 1 µmol/L, at 1 µM
[22] = tested on: Candida albicans; experiment: Induction of mitochondrial membrane potential loss in Candida albicans ATCC SC5314 assessed as depolarized cells at 1 umol/ml incubated for 24 hrs by JC-1 staining based flow cytometry assay (reference value: 0.76 to 3.29%); format: functional; conditions: dose 1 µmol/L, at 1 µM
[23] = tested on: Candida albicans; experiment: Induction of apoptosis in Candida albicans ATCC SC5314 assessed as normal cells incuabted for 24 hrs by V-FITC/PI staining based flow cytometry analysis (reference value: 96.78%); format: functional
[24] = tested on: Candida albicans; experiment: Induction of apoptosis in Candida albicans ATCC SC5314 assessed as mid apoptotic cells incuabted for 24 hrs by V-FITC/PI staining based flow cytometry analysis (reference value: 1.09%); format: functional
[25] = tested on: Candida albicans; experiment: Induction of apoptosis in Candida albicans ATCC SC5314 assessed as late apoptotic cells incuabted for 24 hrs by V-FITC/PI staining based flow cytometry analysis (reference value: 0.36%); format: functional
[26] = tested on: Candida albicans; experiment: Induction of apoptosis in Candida albicans ATCC SC5314 assessed as necrotic cells incuabted for 24 hrs by V-FITC/PI staining based flow cytometry analysis (reference value: 1.77%); format: functional
[27] = target: T1, Lanosterol 14-alpha demethylase; experiment: Inhibition of CYP51 in Candida albicans ATCC SC5314 assessed as ergosterol level at 4 ug/ml incuabted for 48 hrs by GC-MS analysis (reference value: 96.48%); design: scale not given: the % may be the effect or the level left; conditions: at 4 µg/mL
[28] = target: T1, Lanosterol 14-alpha demethylase; experiment: Inhibition of CYP51 in Candida albicans ATCC SC5314 assessed as lanosterol level at 4 ug/ml incuabted for 48 hrs by GC-MS analysis relative to control; design: scale not given: the % may be the effect or the level left; conditions: at 4 µg/mL
[29] = target: T1, Lanosterol 14-alpha demethylase; experiment: Inhibition of CYP51 in Candida albicans ATCC SC5314 assessed as eburicol level at 4 ug/ml incuabted for 48 hrs by GC-MS analysis (reference value: 1.05%); design: scale not given: the % may be the effect or the level left; conditions: at 4 µg/mL
[30] = target: T1, Lanosterol 14-alpha demethylase; experiment: Inhibition of CYP51 in Candida albicans ATCC SC5314 assessed as unknown sterol level at 4 ug/ml incuabted for 48 hrs by GC-MS analysis (reference value: 2.47%); design: scale not given: the % may be the effect or the level left; conditions: at 4 µg/mL
[31] = organism: Mus musculus; experiment: Antiinflammatory activity against mouse infected with Candida albicans ATCC SC5314 assessed as reduction in COX-2 expression in spleen by Western blot analysis; format: functional; design: scale not given: the % may be the effect or the level left
[32] = organism: Mus musculus; experiment: Antiinflammatory activity in mouse infected with Candida albicans ATCC SC5314 assessed as reduction in COX-2 expression in spleen by hematoxylin staining based inverted microscopic analysis (reference value: 83.52 a.u.); format: functional
[33] = organism: Mus musculus; experiment: Immunostimulatory activity in mouse infected with Candida albicans ATCC SC5314 assessed as reduction in PD-L1 expression in spleen by western blot analysis relative to control; format: functional; design: scale not given: the % may be the effect or the level left
[34] = organism: Mus musculus; experiment: Immunostimulatory activity in mouse infected with Candida albicans ATCC SC5314 assessed as increase in CD3+ expression level in spleen by immunohistochemical analysis; format: functional
[35] = organism: Mus musculus; experiment: Immunostimulatory activity in mouse infected with Candida albicans ATCC SC5314 assessed as increase in CD8+ expression level in spleen by immunohistochemical analysis; format: functional

Compound | Activity [1] | MIC50 [2] [µg/mL] | MIC50 [3] [µg/mL] | MIC50 [4] [µg/mL] | MIC50 [5] [µg/mL] | MIC50 [6] [µg/mL] | MIC50 [7] [µg/mL] | MIC50 [8] [µg/mL] | MIC50 [9] [µg/mL] | MIC50 [10] [µg/mL] | MIC50 [11] [µg/mL] | IC50 [13] [nM] | Activity [15] [IU/L] | Activity [16] [IU/L] | Activity [17] [mmol/L] | Activity [18] [%] | Activity [19] [%] | Activity [20] [%] | Activity [21] [%] | Activity [22] [%] | further results
COc1ccc2cc([C@H](C)C(=O)NC(Cn3cncn3)C(=O)c3ccccc3)ccc2c1 (some centres not stated) | Active | 0.125 (≈ 0.292 µM) | 0.25 (≈ 0.583 µM) | 1 (≈ 2.33 µM) | 0.25 (≈ 0.583 µM) | 0.125 (≈ 0.292 µM) | 2 (≈ 4.67 µM) | 1 (≈ 2.33 µM) | 4 (≈ 9.34 µM) | 1 (≈ 2.33 µM) | 2 (≈ 4.67 µM) | 80 | 75.1 | 39.4 | 10.5 | 115 | 62 | 0.81 | 44.19 | 3.14 | IC50 [12]: > 50 µM; Activity [14]: Non-Toxic; Activity [23]: 50.92%; Activity [24]: 14.76%; Activity [25]: 22.73%; Activity [26]: 11.59%; Activity [27]: 8.62%; Activity [28]: 46.09%; Activity [29]: 35.68%; Activity [30]: 9.61%; Activity [31]: 11.32%; Activity [32]: 20.15 a.u.; Activity [33]: 12.36%; Activity [34]: Active; Activity [35]: Active
CC(C)NC(=O)[C@@H](Cn1ccnc1)NC(=O)[C@@H](C)c1cccc(C(=O)c2ccccc2)c1 | Active | 0.5 (≈ 1.16 µM) | 0.125 (≈ 0.289 µM) | 2 (≈ 4.62 µM) | 0.25 (≈ 0.578 µM) | 0.5 (≈ 1.16 µM) | 2 (≈ 4.62 µM) | 1 (≈ 2.31 µM) | 4 (≈ 9.25 µM) | 2 (≈ 4.62 µM) | 4 (≈ 9.25 µM) | 150 | 69.8 | 41.2 | 12.1 | 121 | 72 | 0.39 | 62.2 | 0.76 | IC50 [12]: > 50 µM; Activity [23]: 53.73%; Activity [24]: 2.81%; Activity [25]: 12.5%; Activity [26]: 30.96%; Activity [27]: 11.27%; Activity [28]: 39.58%; Activity [29]: 37.35%; Activity [30]: 11.8%; Activity [31]: 18.41%; Activity [32]: 20.15 a.u.; Activity [33]: 9.84%; Activity [34]: Active; Activity [35]: Active
OC(Cn1cncn1)(Cn1cncn1)c1ccc(F)cc1F [FLUCONAZOLE] | Active | 0.5 (≈ 1.63 µM) | 0.5 (≈ 1.63 µM) | > 8 | 1 (≈ 3.27 µM) | 0.5 (≈ 1.63 µM) | > 8 | > 8 | > 8 | > 8 | > 8 | 140 | 81.6 | 37.5 | 9.7 | 119 | 75 | 0.39 | 81.14 | 0.37 | Activity [14]: Non-Toxic; Activity [23]: 68.17%; Activity [24]: 0.4%; Activity [25]: 1.56%; Activity [26]: 29.87%; Activity [27]: 13.19%; Activity [28]: 35.17%; Activity [29]: 40.24%; Activity [30]: 11.4%; Activity [31]: 47.23%; Activity [33]: 31.81%; Activity [34]: 2.5; Activity [35]: 2.5
